Organism: Rattus norvegicus
Test: DrugMatrix - Regimen: Daily Repeat
Type: toxicity, organism-based, Sprague-Dawley
Parameters: regimen Daily Repeat, gender Male, age 6-8 weeks
Conditions: in vivo, iv, 72 h, time 3 day, vehicle 100 % SALINE; for ABSOLUTE BASOPHIL / ABSOLUTE EOSINOPHIL / ABSOLUTE LYMPHOCYTE / ABSOLUTE MONOCYTE / ABSOLUTE SEGMENTED NEUTROPHIL / BASOPHIL / EOSINOPHIL / ERYTHROCYTE COUNT / HEMATOCRIT / HEMOGLOBIN / LEUKOCYTE COUNT / LYMPHOCYTE / MEAN CORPUSCULAR HEMOGLOBIN / MEAN CORPUSCULAR HEMOGLOBIN CONCENTRATION / MEAN CORPUSCULAR VOLUME / MONOCYTE / NEUTROPHIL / NUCLEATED RED BLOOD CELLS / PLATELET COUNT: tissue Blood; for ALANINE AMINOTRANSFERASE / ALKALINE PHOSPHATASE / ASPARTATE AMINOTRANSFERASE / BLOOD UREA NITROGEN / CARBON DIOXIDE / CHLORIDE / CHOLESTEROL / CREATINE PHOSPHOKINASE / CREATININE / GLUCOSE / LACTATE DEHYDROGENASE / LIPASE / PHOSPHORUS / POTASSIUM / SODIUM / TOTAL BILIRUBIN / TOTAL PROTEIN / URIC ACID: tissue Plasma

SMILES: COc1cc2c(c(OC)c1OC)-c1ccc(OC)c(=O)cc1[C@@H](NC(C)=O)CC2 [COLCHICINE]
- ABSOLUTE BASOPHIL (0.06 mg/kg, dose level Low): 0 CELLS/uL
- ABSOLUTE EOSINOPHIL (0.06 mg/kg, dose level Low): 27.33 CELLS/uL
- ABSOLUTE LYMPHOCYTE (0.06 mg/kg, dose level Low): 6156.67 CELLS/uL
- ABSOLUTE MONOCYTE (0.06 mg/kg, dose level Low): 0 CELLS/uL
- ABSOLUTE SEGMENTED NEUTROPHIL (0.06 mg/kg, dose level Low): 749.33 CELLS/uL
- BASOPHIL (0.06 mg/kg, dose level Low): 0%
- EOSINOPHIL (0.06 mg/kg, dose level Low): 0.33%
- ERYTHROCYTE COUNT (0.06 mg/kg, dose level Low): 5.17 x10E6/uL
- HEMATOCRIT (0.06 mg/kg, dose level Low): 32.07%
- HEMOGLOBIN (0.06 mg/kg, dose level Low): 12.27 G/DL
- LEUKOCYTE COUNT (0.06 mg/kg, dose level Low): 6.93 x10E3/uL
- LYMPHOCYTE (0.06 mg/kg, dose level Low): 89%
- MEAN CORPUSCULAR HEMOGLOBIN (0.06 mg/kg, dose level Low): 23.77 pg
- MEAN CORPUSCULAR HEMOGLOBIN CONCENTRATION (0.06 mg/kg, dose level Low): 38.27 G/DL
- MEAN CORPUSCULAR VOLUME (0.06 mg/kg, dose level Low): 62.1 fL
- MONOCYTE (0.06 mg/kg, dose level Low): 0%
- NEUTROPHIL (0.06 mg/kg, dose level Low): 10.67%
- NUCLEATED RED BLOOD CELLS (0.06 mg/kg, dose level Low): 0 /100WBC
- PLATELET COUNT (0.06 mg/kg, dose level Low): 1043 x10E3/uL
- ALANINE AMINOTRANSFERASE (0.06 mg/kg, dose level Low): 47.67 u/L
- ALKALINE PHOSPHATASE (0.06 mg/kg, dose level Low): 415.67 u/L
- ASPARTATE AMINOTRANSFERASE (0.06 mg/kg, dose level Low): 76.33 u/L
- BLOOD UREA NITROGEN (0.06 mg/kg, dose level Low): 14 mg/dL
- CARBON DIOXIDE (0.06 mg/kg, dose level Low): 31.67 mmol/L
- CHLORIDE (0.06 mg/kg, dose level Low): 96.33 MEQ/L
- CHOLESTEROL (0.06 mg/kg, dose level Low): 74 mg/dL
- CREATINE PHOSPHOKINASE (0.06 mg/kg, dose level Low): 201 u/L
- CREATININE (0.06 mg/kg, dose level Low): 0.18 mg/dL
- GLUCOSE (0.06 mg/kg, dose level Low): 136.67 mg/dL
- LACTATE DEHYDROGENASE (0.06 mg/kg, dose level Low): 97 u/L
- LIPASE (0.06 mg/kg, dose level Low): 8 u/L
- PHOSPHORUS (0.06 mg/kg, dose level Low): 13.4 mg/dL
- POTASSIUM (0.06 mg/kg, dose level Low): 6.43 MEQ/L
- SODIUM (0.06 mg/kg, dose level Low): 144.43 MEQ/L
- TOTAL BILIRUBIN (0.06 mg/kg, dose level Low): 0.17 mg/dL
- TOTAL PROTEIN (0.06 mg/kg, dose level Low): 6.37 G/DL
- URIC ACID (0.06 mg/kg, dose level Low): 1.13 mg/dL
- ABSOLUTE BASOPHIL (0.6 mg/kg, dose level High): 0 CELLS/uL
- ABSOLUTE EOSINOPHIL (0.6 mg/kg, dose level High): 18.33 CELLS/uL
- ABSOLUTE LYMPHOCYTE (0.6 mg/kg, dose level High): 4412.33 CELLS/uL
- ABSOLUTE MONOCYTE (0.6 mg/kg, dose level High): 18.33 CELLS/uL
- ABSOLUTE SEGMENTED NEUTROPHIL (0.6 mg/kg, dose level High): 317.67 CELLS/uL
- BASOPHIL (0.6 mg/kg, dose level High): 0%
- EOSINOPHIL (0.6 mg/kg, dose level High): 0.33%
- ERYTHROCYTE COUNT (0.6 mg/kg, dose level High): 4.91 x10E6/uL
- HEMATOCRIT (0.6 mg/kg, dose level High): 30.9%
- HEMOGLOBIN (0.6 mg/kg, dose level High): 11.7 G/DL
- LEUKOCYTE COUNT (0.6 mg/kg, dose level High): 4.77 x10E3/uL
- LYMPHOCYTE (0.6 mg/kg, dose level High): 93%
- MEAN CORPUSCULAR HEMOGLOBIN (0.6 mg/kg, dose level High): 23.87 pg
- MEAN CORPUSCULAR HEMOGLOBIN CONCENTRATION (0.6 mg/kg, dose level High): 37.87 G/DL
- MEAN CORPUSCULAR VOLUME (0.6 mg/kg, dose level High): 62.97 fL
- MONOCYTE (0.6 mg/kg, dose level High): 0.33%
- NEUTROPHIL (0.6 mg/kg, dose level High): 6.33%
- NUCLEATED RED BLOOD CELLS (0.6 mg/kg, dose level High): 0.33 /100WBC
- PLATELET COUNT (0.6 mg/kg, dose level High): 987.33 x10E3/uL
- ALANINE AMINOTRANSFERASE (0.6 mg/kg, dose level High): 103.67 u/L
- ALKALINE PHOSPHATASE (0.6 mg/kg, dose level High): 371.33 u/L
- ASPARTATE AMINOTRANSFERASE (0.6 mg/kg, dose level High): 526.67 u/L
- BLOOD UREA NITROGEN (0.6 mg/kg, dose level High): 14.33 mg/dL
- CARBON DIOXIDE (0.6 mg/kg, dose level High): 28.67 mmol/L
- CHLORIDE (0.6 mg/kg, dose level High): 97 MEQ/L
- CHOLESTEROL (0.6 mg/kg, dose level High): 115.67 mg/dL
- CREATINE PHOSPHOKINASE (0.6 mg/kg, dose level High): 183.67 u/L
- CREATININE (0.6 mg/kg, dose level High): 0.17 mg/dL
- GLUCOSE (0.6 mg/kg, dose level High): 165.67 mg/dL
- LACTATE DEHYDROGENASE (0.6 mg/kg, dose level High): 137.33 u/L
- LIPASE (0.6 mg/kg, dose level High): 9 u/L
- PHOSPHORUS (0.6 mg/kg, dose level High): 11.9 mg/dL
- POTASSIUM (0.6 mg/kg, dose level High): 6.74 MEQ/L
- SODIUM (0.6 mg/kg, dose level High): 144.13 MEQ/L
- TOTAL BILIRUBIN (0.6 mg/kg, dose level High): 0.13 mg/dL
- TOTAL PROTEIN (0.6 mg/kg, dose level High): 6.3 G/DL
- URIC ACID (0.6 mg/kg, dose level High): 1.67 mg/dL
